Results as given in patent US9434684B2, “Oxime-substituted amide compound and pest control agent” (Nissan Chemical Industries, Ltd., priority 2012, dated 2016).

Columns and labels:
[1] = system: Phaeosphaeria nodorum (synonym: Septoria nodorum); assay: Preventive effect against wheat glume blotch; format: in vivo; details: Parastagonospora nodorum, 192 h, 100 ppm solution (*), 2 + 6 days
Botrytis cinerea [2] = assay: Preventive effect against cucumber gray mold (mycelium inoculation); format: in vivo; details: 48 h, 100 ppm solution (*), 2 days
Sclerotinia sclerotiorum = assay: Preventive effect against cucumber stem rot; format: in vivo; details: 48 h, 100 ppm solution (*), 2 days
Botrytis cinerea [3] = assay: Preventive effect against cucumber gray mold (spore inoculation); format: in vivo; details: 72 h, cucumber leaves, 100 ppm solution (*), 3 days

melting point: 97 to 98 °C
SMILES: CC(C)O/N=C(/CNC(=O)c1ccccc1C(F)(F)F)c1ncc(C(F)(F)F)cc1Cl [Compound No. 2-020, (Z)—N-[2-[3-chloro-5-(trifluoromethyl)pyridin-2-yl]-2-(isopropoxyimino)ethyl]-2-(trifluoromethyl)benzamide]
pest or weed control at 100 ppm [1]: ≥ 70% | pest or weed control at 100 ppm (Botrytis cinerea [2]): ≥ 70% | pest or weed control at 100 ppm (Sclerotinia sclerotiorum): ≥ 70% | pest or weed control at 100 ppm (Botrytis cinerea [3]): ≥ 70%
